Test results published in patent publication EP0025288A1, “Derivatives of monic acid, processes for their preparation, compositions containing them and their preparation” (priority 1979, dated 1981).
Values after ≈ are worked out from the molar mass of the structure shown.

Experiments:
M pulmonis JB [1] = assay: MIC, anti-mycoplasmal, Friis' broth microtiter method; assay type: cell-based; conditions: read-out: in vitro MIC, BROTH
M pulmonis JB [2] = assay: MIC, anti-mycoplasmal, serial dilution in Friis' agar; assay type: cell-based; conditions: read-out: in vitro MIC, AGAR
Strep agalactiae SPA1 = assay: MIC, veterinary bacteria; assay type: cell-based; conditions: veterinary bacteria (Table 2), read-out: MIC
M hyorhinis ATCC 23234 = assay: MIC, anti-mycoplasmal, serial dilution in Friis' agar; assay type: cell-based; conditions: read-out: in vitro MIC, AGAR
M hyosynoviae ATCC 25591 = assay: as above; assay type: cell-based; conditions: read-out: in vitro MIC, AGAR
Past Haemolytica PA5 = assay: MIC, veterinary bacteria; assay type: cell-based; conditions: veterinary bacteria (Table 2), read-out: MIC
M pneumoniae ATCC 15492 [3] = assay: MIC, anti-mycoplasmal, Friis' broth microtiter method; assay type: cell-based; conditions: read-out: in vitro MIC, BROTH
M arthritidis ATCC 14124 = assay: MIC, anti-mycoplasmal, serial dilution in Friis' agar; assay type: cell-based; conditions: read-out: in vitro MIC, AGAR
Past multocida PA2 = assay: MIC, veterinary bacteria; assay type: cell-based; conditions: veterinary bacteria (Table 2), read-out: MIC
M gallisepticum S6 = assay: MIC, anti-mycoplasmal, serial dilution in Friis' agar; assay type: cell-based; conditions: read-out: in vitro MIC, AGAR
S dublin S7 = assay: MIC, veterinary bacteria; assay type: cell-based; conditions: veterinary bacteria (Table 2), read-out: MIC
M suipneumoniae Str 11 = assay: MIC, anti-mycoplasmal, Friis' broth microtiter method; assay type: cell-based; conditions: read-out: in vitro MIC, BROTH
M fermentans MWKL4 [4] = assay: as above; assay type: cell-based; conditions: read-out: in vitro MIC, BROTH
M dispar NCTC 10125 = assay: as above; assay type: cell-based; conditions: read-out: in vitro MIC, BROTH
[5] = system: Corynebacterium pyogenes CY1; assay: MIC, veterinary bacteria; assay type: cell-based; conditions: veterinary bacteria (Table 2), read-out: MIC
[6] = system: M bovigenitalium ATCC 14173; assay: MIC, anti-mycoplasmal, serial dilution in Friis' agar; assay type: cell-based; conditions: read-out: in vitro MIC, AGAR
[7] = system: Erysipelothrix rhusiopathiae NCTC 8163; assay: MIC, veterinary bacteria; assay type: cell-based; conditions: NCTC8163, veterinary bacteria (Table 2), read-out: MIC
[8] = system: Staph aureus 152 (pen sens); assay: MIC, veterinary bacteria; assay type: cell-based; conditions: Staphylococcus aureus, veterinary bacteria (Table 2), read-out: MIC
Bord bronchiseptica BO8 = assay: MIC, veterinary bacteria; assay type: cell-based; conditions: veterinary bacteria (Table 2), read-out: MIC
S typhimurium S18 = assay: MIC, veterinary bacteria; assay type: cell-based; conditions: veterinary bacteria (Table 2), read-out: MIC
[9] = Serum binding by ultrafiltration; assay type: in vitro ADME, pig; conditions: pig, serum, compounds at 8 mcg/ml, microbiological assay (B. subtilis ATCC 6633), read-out: % bound to pig serum (converted)
Method: Serum binding was assessed by ultrafiltration of procine serum containing compounds at 8 mcg/ml, and through an Amicon CF50A ultrafiltration cone. Separation of ultrafiltrate was achieved by centrifugation.

Strep uberis SPU1 = assay: MIC, veterinary bacteria; assay type: cell-based; conditions: veterinary bacteria (Table 2), read-out: MIC
M fermentans MWKL4 [10] = assay: MIC, anti-mycoplasmal, serial dilution in Friis' agar; assay type: cell-based; conditions: read-out: in vitro MIC, AGAR
[11] = system: Staph aureus B4 (pen resis); assay: MIC, veterinary bacteria; assay type: cell-based; conditions: Staphylococcus aureus, veterinary bacteria (Table 2), read-out: MIC
M alkalescens NCTC 10135 = assay: MIC, anti-mycoplasmal, serial dilution in Friis' agar; assay type: cell-based; conditions: read-out: in vitro MIC, AGAR
Staph aureus Oxford = assay: MIC, veterinary bacteria; assay type: cell-based; conditions: Staphylococcus aureus, veterinary bacteria (Table 2), read-out: MIC
Past multocida PA1 = assay: MIC, veterinary bacteria; assay type: cell-based; conditions: veterinary bacteria (Table 2), read-out: MIC
M pneumoniae 427a [12] = assay: MIC, anti-mycoplasmal, serial dilution in Friis' agar; assay type: cell-based; conditions: read-out: in vitro MIC, AGAR
E coli E1 = assay: MIC, veterinary bacteria; assay type: cell-based; conditions: veterinary bacteria (Table 2), read-out: MIC
M dispar H225 = assay: MIC, anti-mycoplasmal, Friis' broth microtiter method; assay type: cell-based; conditions: read-out: in vitro MIC, BROTH
Strep dysgalaciae SPD1 = assay: MIC, veterinary bacteria; assay type: cell-based; conditions: veterinary bacteria (Table 2), read-out: MIC
M pneumoniae 427a [13] = assay: MIC, anti-mycoplasmal, Friis' broth microtiter method; assay type: cell-based; conditions: read-out: in vitro MIC, BROTH
Bord bronchisptica BO9 = assay: MIC, veterinary bacteria; assay type: cell-based; conditions: veterinary bacteria (Table 2), read-out: MIC
[14] = system: Strep suis (group D) SPS11; assay: MIC, veterinary bacteria; assay type: cell-based; conditions: veterinary bacteria (Table 2), read-out: MIC
E coli NCTC 10418 = assay: MIC, veterinary bacteria; assay type: cell-based; conditions: veterinary bacteria (Table 2), read-out: MIC
[15] = system: M suipneumoniae J2206/183b; assay: MIC, anti-mycoplasmal, Friis' broth microtiter method; assay type: cell-based; conditions: read-out: in vitro MIC, BROTH
M pneumoniae ATCC 15492 [16] = assay: MIC, anti-mycoplasmal, serial dilution in Friis' agar; assay type: cell-based; conditions: read-out: in vitro MIC, AGAR
M synoviae ATCC 25204 = assay: as above; assay type: cell-based; conditions: read-out: in vitro MIC, AGAR

## CC(=O)COC(=O)C=C(C)CC1OCC(CC2OC2C(C)C(C)O)C(O)C1O (centres unmarked) [Example 1, Acetvlmethvl Monate A]
M pulmonis JB [1]
  MIC: 0.156 µg/mL (≈ 0.39 µM)
M pulmonis JB [2]
  MIC: 0.156 µg/mL (≈ 0.39 µM)
Strep agalactiae SPA1
  MIC: 5 µg/mL (≈ 12.5 µM)
M hyorhinis ATCC 23234
  MIC: 2.5 µg/mL (≈ 6.24 µM)
M hyosynoviae ATCC 25591
  MIC: 1.25 µg/mL (≈ 3.12 µM)
Past Haemolytica PA5
  MIC: 5 µg/mL (≈ 12.5 µM)
M pneumoniae ATCC 15492 [3]
  MIC: > 10 µg/mL
M arthritidis ATCC 14124
  MIC: > 10 µg/mL
Past multocida PA2
  MIC: 0.312 µg/mL (≈ 0.779 µM)
M gallisepticum S6
  MIC: > 10 µg/mL
S dublin S7
  MIC: > 80 µg/mL
M suipneumoniae Str 11
  MIC: 0.625 µg/mL (≈ 1.56 µM)
M fermentans MWKL4 [4]
  MIC: 0.078 µg/mL (≈ 0.195 µM)
M dispar NCTC 10125
  MIC: 0.156 µg/mL (≈ 0.39 µM)
[5]
  MIC: > 80 µg/mL
[6]
  MIC: 0.078 µg/mL (≈ 0.195 µM)
[7]
  MIC: > 80 µg/mL
[8]
  MIC: 2.5 µg/mL (≈ 6.24 µM)
Bord bronchiseptica BO8
  MIC: > 80 µg/mL
S typhimurium S18
  MIC: > 80 µg/mL
[9]
  fraction unbound: 0.772
Strep uberis SPU1
  MIC: 2.5 µg/mL (≈ 6.24 µM)
M fermentans MWKL4 [10]
  MIC: 0.312 µg/mL (≈ 0.779 µM)
[11]
  MIC: 2.5 µg/mL (≈ 6.24 µM)
M alkalescens NCTC 10135
  MIC: 0.039 µg/mL (≈ 0.0974 µM)
Staph aureus Oxford
  MIC: 2.5 µg/mL (≈ 6.24 µM)
Past multocida PA1
  MIC: 0.625 µg/mL (≈ 1.56 µM)
M pneumoniae 427a [12]
  MIC: 10 µg/mL (≈ 25 µM)
E coli E1
  MIC: > 80 µg/mL
M dispar H225
  MIC: 0.156 µg/mL (≈ 0.39 µM)
Strep dysgalaciae SPD1
  MIC: 5 µg/mL (≈ 12.5 µM)
M pneumoniae 427a [13]
  MIC: > 10 µg/mL
Bord bronchisptica BO9
  MIC: 40 µg/mL (≈ 99.9 µM)
[14]
  MIC: 40 µg/mL (≈ 99.9 µM)
E coli NCTC 10418
  MIC: > 80 µg/mL
[15]
  MIC: 1.25 µg/mL (≈ 3.12 µM)
M pneumoniae ATCC 15492 [16]
  MIC: > 10 µg/mL
M synoviae ATCC 25204
  MIC: < 0.02 µg/mL
